Counter-ions that a name gives are not always drawn. Like-named read-outs stand apart in the source and are kept apart here.

These results are taken from patent US10351559B2, “Maleate salts of a B-RAF kinase inhibitor, crystalline forms, methods of preparation, and uses therefore” (BeiGene, Ltd., priority 2015, dated 2019).

Series [1] has as its system human A375 melanoma (B-RAF V600E mutation) xenografts. Kind of series: xenograft efficacy study. It is filed as in vivo, BALB/C nude mice. The following applies: A375 xenografts in nude mice, oral. Here is the method:
(§1) Human cancer cells were inoculated subcutaneously in the right axilla region of BALB/C nude mice to generate tumor xenografts. On the day of implantation, the cell culture medium was replaced with fresh medium. Three hours later, the media was removed and the cells were collected and re-suspended in cold (4° C.) PBS prior to inoculation. The right axilla region of each mouse was cleaned with 70% ethanol prior to cell inoculation. Each animal was injected subcutaneously with desired cells in 200 μl of cell suspension in the right front flank via a 26-gauge needle. After implantation tumor volumes were measured twice weekly in two dimensions using a calliper. Tumor volume was calculated using the formula: V=0.5×(a×b^2) where a and b are the long and short diameters of the tumor, respectively.
(§2) For in vivo efficacy studies, when the average tumor size reaches 100˜200 mm^3, animals were assigned into desired number of groups with 6-10 mice per group using a stratified randomization procedure. The groups consisted of a control group (no drug treatment), and different dose levels of Crystalline Form A* of Compound 1 Sesqui-Maleate treatment groups (ranged from 1-20 mg/kg). All doses were based on free-base weight. Drugs were administered by oral gavage once (qd) or twice (bid) daily; dosing frequency depended on the individual case for tumor growth. Treatments were administered by oral gavage (p.o.) in a volume of 10 ml/kg body weight. Body weight was assessed immediately before dosing and the volume dosed was adjusted accordingly. Individual body weights and tumor volumes were determined twice weekly, with mice being monitored daily for clinical signs of toxicity for the duration of the study. Mice were euthanized using carbon dioxide once their tumor volume reached 2000 mm^3, the tumor was ulcerated, or body weight loss exceeded 20%. All group data was analyzed using the t test. If the p value was <0.05, it was considered to be statistically significant.
(§3) Tumor growth inhibition (TGI) was calculated using the following formula: […]

Series [2] concerns LOX melanoma (B-RAF V600E mutation) xenografts. Description: xenograft efficacy study. It is filed as in vivo, BALB/C nude mice. The following applies: LOX xenografts in nude mice, oral. How it is done: as §1, §2, §3
Series [3] has as its system HCC827 lung carcinoma (EGFR mutation) xenografts. Kind of series: xenograft efficacy study. Type of series: in vivo, BALB/C nude mice. To be noted: HCC827 xenografts in nude mice, oral. Here is the method: as §1, §2, §3
The subject of series [4] is WiDr colorectal carcinoma (B-RAF V600E mutation) xenografts. Description: xenograft efficacy study. It is filed as in vivo, BALB/C nude mice. To be noted: WiDr xenografts in nude mice, oral. Here is the method:
as §1, §2, §3

For series [5], the system named is HT29 colorectal carcinoma (B-RAF V600E mutation) xenografts. Kind of series: xenograft efficacy study. Type of series: in vivo, BALB/C nude mice. To be noted: HT29 xenografts in nude mice, oral. How it is done: as §1, §2, §3
For series [6], the system named is Colo205 colorectal carcinoma (B-RAF V600E mutation) xenografts. Description: xenograft efficacy study. Type of series: in vivo, BALB/C nude mice. The following applies: Colo205 xenografts in nude mice, oral. How it is done:
as §1, §2, §3

The subject of series [7] is A431 epidermoid carcinoma (EGFR overexpression) xenografts. Description: xenograft efficacy study. Type of series: in vivo, BALB/C nude mice. The following applies: A431 xenografts in nude mice, oral. How it is done:
as §1, §2, §3

Series [8] deals with p-ERK in Calu-6 K-RAS mutant non-small cell lung adenocarcinoma xenograft models. Kind of series: PD study, p-ERK in tumor tissue, combination. To be noted: Calu-6 xenograft, with MEK inhibitor AZD6244. It is filed as in vivo, mice. How it is done: as §1
For PD study, when the average tumor size reaches 140-900 mm^3, animals were assigned into desired number of groups with 4 mice per group using a stratified randomization procedure. The groups consisted of a control group (no drug treatment), and different dose levels of Crystalline Form A* of Compound 1 Sesqui-Maleate treatment groups (ranged from 1-20 mg/kg). All doses were based on free-base weight. Drugs were administered by oral gavage once (qd) or twice (bid) daily. […] Body weight was assessed immediately before dosing and the volume dosed was adjusted accordingly. […]

A short description of series [9]: pharmacokinetic study (LC-MS/MS). Type of series: in vivo, Sprague-Dawley rats. The following applies: rats. From the text:
(§4) The fully-validated LC-MS/MS method was well used for the pharmacokinetic (PK) studies of Crystalline Form A* of Compound 1 Sesqui-Maleate in Sprague-Dawley rats and beagle dogs following single- and multiple-dose administrations.

In series [10] the test system is P450 enzymes in rat liver. Kind of series: P450 enzyme induction. Type of series: in vitro ADME.
A short description of series [11]: pharmacokinetic study (LC-MS/MS). Type of series: in vivo, beagle dogs. To be noted: dogs.
Excerpt: as §4

A short description of series [12]: long-term stability study. Type of series: physicochemical.

In the case of `O=C1CCc2c(Oc3ccc4c(c3)[C@@H]3[C@H](O4)[C@H]3c3nc4ccc(C(F)(F)F)cc4[nH]3)ccnc2N1` [5-(((1R,1aS,6bR)-1-(6-(trifluoromethyl)-1H-benzo[d]imidazol-2-yl)-1a,6b-dihydro-1H-cyclopropa[b]benzofuran-5-yl)oxy)-3,4-dihydro-1,8-naphthyridin-2(1H)-one sesqui-maleate salt], the antitumor activity result in [1], in series [2], in [3], in series [4], in series [5] and in series [6] was “marked antitumor activity” each time. Further, in series [7], the antitumor activity entry is “marked antitumor activity”. Further, the “effect on inhibiting p-ERK in combination” value in series [8] is reported as “strong synergistic effect”. Moreover, the bioavailability was in the range of 51 to 102% in series [9] (Sprague-Dawley, rat, in vivo, po) and 41 to 82% in [11] (beagle, dog, in vivo, po). The half-life was 4.4 to 9.4 h in [9] (Sprague-Dawley, rat, in vivo, after oral administration, read-out: elimination half-life) and 3.3 to 4.9 h in series [11] (beagle, dog, in vivo, after oral administration, read-out: elimination half-life). Moreover, the figures for the “accumulation after multiple dosing” value in [9] and in series [11] were ~2 fold and “No accumulation”, respectively. Besides, the “kinetics over dose range” value in series [9] (0.5 to 15 mg/kg) and in series [11] (1.5 to 15 mg/kg) was “linear” in each case. Also, the “induction effect on P450 enzymes” value in series [10] is “No significant induction effect”. The “purity after stability study” value in series [12] (24 month at 25 C/75% RH) was found to be 98.5%. Moreover, the “crystal form and optical purity changes” value in series [12] (25° C./60% RH up to 18 months and 40° C./75% RH up to 6 months) was “no crystal form and optical purity changes were observed”. Besides, the Assay w/w in series [12] (T0, 25° C./60% RH study) is recorded as 99.1%; in series [12] (T0, 40° C./75% RH study), 99.1%; in series [12] (T6: 6 months at 40° C./75% RH), 98.9%; in [12] (T18: 18 months at 25° C./60% RH), 98.8%.
